Here are results for four compounds from patent US7858794B2, “Tetrahydroquinoline derivatives” (N.V. Organon, priority 2002, dated 2010).

In the assay the target is T1, human FSH receptor (Homo sapiens, UniProt P23945).
T1 construct: expressed in transfected cells; host or cells: Chinese Hamster Ovary (CHO) cells
T1 sequence (P23945 18-695): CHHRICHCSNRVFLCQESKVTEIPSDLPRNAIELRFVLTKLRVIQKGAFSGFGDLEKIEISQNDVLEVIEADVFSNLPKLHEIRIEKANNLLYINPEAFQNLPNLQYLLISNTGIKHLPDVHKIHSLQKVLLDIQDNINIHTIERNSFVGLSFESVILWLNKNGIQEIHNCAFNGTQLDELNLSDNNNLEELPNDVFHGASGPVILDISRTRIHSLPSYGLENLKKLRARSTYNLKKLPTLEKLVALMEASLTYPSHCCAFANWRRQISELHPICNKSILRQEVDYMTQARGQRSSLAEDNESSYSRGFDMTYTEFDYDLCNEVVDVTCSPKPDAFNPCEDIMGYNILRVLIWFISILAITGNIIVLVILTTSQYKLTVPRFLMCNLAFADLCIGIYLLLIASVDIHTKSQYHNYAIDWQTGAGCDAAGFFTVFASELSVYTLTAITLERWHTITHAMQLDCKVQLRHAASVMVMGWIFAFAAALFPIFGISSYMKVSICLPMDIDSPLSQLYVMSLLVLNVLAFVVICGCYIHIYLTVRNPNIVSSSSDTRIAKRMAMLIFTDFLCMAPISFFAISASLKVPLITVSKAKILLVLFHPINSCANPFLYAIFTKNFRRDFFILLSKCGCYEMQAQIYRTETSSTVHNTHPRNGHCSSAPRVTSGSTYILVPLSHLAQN
In words: CHO-FSH in vitro bioactivity (CRE-luciferase reporter, agonistic or antagonistic set-up). The assay is classed as cell-based. As to conditions: CHO cells stably transfected with human FSH receptor and CRE-luciferase; either agonistic or antagonistic (rec-hFSH, 10 mU/ml) assay set-up or both / at least one of the assays; read-out: EC50 (IC50). As to the method:
FSH activity of compounds were tested in Chinese Hamster Ovary (CHO) cells stably transfected with the human FSH receptor and cotransfected with a cAMP responsive element (CRE)/promotor directing the expression of a firefly luciferase reporter gene. Binding of ligand to the Gs-coupled FSH receptor will result in an increase of cAMP, which in turn will induce an increased transactivation of the luciferase reporter construct. To test antagonistic properties recombinant FSH in a concentration that induces approximately 80% of the maximal stimulation of cAMP accumulation in the absence of test compound was added (rec-hFSH, 10 mU/ml). The luciferase signal was quantified using a luminescence counter. For test compounds, EC50 values (concentration of test compound causing half-maximal (50%) stimulation or reduction) were calculated For that purpose the software program GraphPad PRISM, version 3.0 (GraphPad software Inc., San Diego) was used.
In general terms: Reporter assays use an easily measured gene product as a stand-in for the process of interest.
The term EC50 denotes the concentration at which the effect is half-maximal. For `CC(=O)N1c2cc(OCC(=O)N(C)C)c(NC(=O)c3ccc(-c4ccccc4)cc3)cc2C(C)(c2ccccc2)CC1(C)C` (stereo not shown) [Example 16, Biphenyl-4-carboxylic acid (1-acetyl-7-dimethylcarbamoylmethoxy-2,2,4-trimethyl-4-phenyl-1,2,3,4-tetrahydro-quinolin-6-yl)-amide], the EC50 is < 100 nM.
Consider `CC(=O)N1c2cc(N(C)C)c(NC(=O)C3CCCC3)cc2C(C)(c2ccccc2)CC1(C)C` (stereo not shown) [Example 37, Cyclopentanecarboxylic acid (1-acetyl-7-dimethylamino-2,2,4-trimethyl-4-phenyl-1,2,3,4-tetrahydro-quinolin-6yl)-amide], for which the EC50 is < 100 nM.
Turning to `CC(=O)N1c2cc(N(C)C)c(NC(=O)C(C)C)cc2C(C)(c2ccccc2)CC1(C)C` (stereo not shown) [Example 38, N-(1-Acetyl-7-dimethylamino-2,2,4-trimethyl-4-phenyl-1,2,3,4-tetrahydro-quinolin-6-yl)-isobutyramide], the half-maximal effective concentration (EC50) is < 100 nM.
For `CCNc1cc2c(cc1NC(=O)c1ccc(-c3ccccc3)cc1)C(C)(c1ccccc1)CC(C)(C)N2C(C)=O` (stereo not shown) [Example 41, Biphenyl-4-carboxylic acid (1-acetyl-7-ethylamino-2,2,4-trimethyl-4-phenyl-1,2,3,4-tetrahydro-quinolin-6-yl)amide], the EC50 was < 100 nM.
